# From ChEMBL document CHEMBL1154466, “3D and quantum QSAR of non-benzodiazepine compounds” (Eur J Med Chem, 2008)
# “And” between values parts separate entries of the source, which are not always exact repeats. Equal entries are not always repeated.
# Assay: Displacement of [3H]diazepam from benzodiazepine receptor
row,Structure (SMILES),pIC50
1,CCOC(=O)c1ncc2c(c1COC)-c1cc(O)ccc1C2,9.05
2,O=[N+]([O-])c1cc2c(cn1)Cc1ccccc1-2,6.9
3,Oc1cc2c(cn1)Cc1ccccc1-2,5.4
4,S=C=Nc1cc2c(cn1)Cc1ccccc1-2,8.1
5,c1ccc2c(c1)Cc1cnccc1-2,5.79
6,Clc1cc2c(cn1)Cc1ccccc1-2,7.35
7,CCCOc1cc2c(cn1)Cc1ccccc1-2,7.96
8,CCOC(=O)c1ncc2c(c1COC)-c1cc(OC)ccc1C2,9.3
9,COc1cc2c(cn1)Cc1ccccc1-2,6.91
10,CCOc1cc2c(cn1)Cc1ccccc1-2,7.62
11,Nc1cc2c(cn1)Cc1ccccc1-2,4.6

# Other lines, results leading:
row,pIC50,Structure (SMILES)
1,7.66,CCOC(=O)c1ncc2c(c1CC)-c1cc(OCc3ccccc3)ccc1C2
2,9,CCOC(=O)c1ncc2c(c1COC)-c1cc(OCc3ccccc3)ccc1C2
3,6.02,CCOC(=O)c1ncc2c(c1COC)-c1cc(OCc3ccccc3)ccc1C2C (centres undefined)
4,8.05,CCOC(=O)c1cc2c(cn1)Cc1ccc(OCc3ccccc3)cc1-2
5,8.3,COC(=O)c1cc2c(cn1)Cc1ccccc1-2
6,8.64,CCOC(=O)c1ncc2c(c1COC)-c1ccccc1C2

# Assay: Displacement of [3H]flunitrazepam from benzodiazepine receptor in rat forebrain
row,pIC50,Structure (SMILES)
1,6.272,CCCc1cc(OC)nc2nc(C(=O)c3ccccc3)cn12
2,7.921,CCc1c(SC)nc2nc(C(=O)c3ccccc3)cn2c1C
3,5.824,CCc1cn2cc(C(=O)c3ccccc3)nc2nc1OC
4,7.328,CCCc1c(SC)nc2nc(C(=O)c3ccccc3)cn2c1CC
5,7.377,CCCCc1c(OC)nc2nc(C(=O)c3ccccc3)cn2c1C
6,7.252,CCc1c(OC)nc2nc(C(=O)c3ccccc3)cn2c1C [DIVAPLON]
7,6.53,CCc1cc(OC)nc2nc(C(=O)c3ccccc3)cn12
8,6.469,CCCCc1cc(OC)nc2nc(C(=O)c3ccccc3)cn12
9,7.051,CCCc1cc(SC)nc2nc(C(=O)c3ccccc3)cn12
10,7.071,CCCc1c(OC)nc2nc(C(=O)c3ccccc3)cn2c1C
11,7.469,CCCc1c(OC)nc2nc(C(=O)c3ccccc3)cn2c1CC
12,7.523 and 7.347,COc1nc2nc(C(=O)c3ccccc3)cn2c(C)c1CC1=CC1
13,8.097,C=CCc1c(SC)nc2nc(C(=O)c3ccccc3)cn2c1C
14,6.097,COc1cc(C)n2cc(C(=O)c3ccccc3)nc2n1
15,6.721,CSc1cc(C)n2cc(C(=O)c3ccccc3)nc2n1
16,6.971,CCc1c(OC)nc2nc(C(=O)c3ccccc3)cn2c1CC
17,7.469,CCCCc1c(OC)nc2nc(C(=O)c3ccccc3)cn2c1CC
18,7.377,CCc1c(CC2=CC2)c(OC)nc2nc(C(=O)c3ccccc3)cn12
19,6,COc1nc2nc(C(=O)c3ccccc3)cn2c(C)c1OC

# Assay: Displacement of [3H]diazepam from benzodiazepine receptor in rat brain
# Format: tissue-based
row,Structure (SMILES),pIC50
1,CN(C)c1ncnc2c1nc(O)n2Cc1cccc(N)c1,5.74
2,Cc1nccc2c1[nH]c1ccccc12 [HARMAN],4.91
3,COc1ccccc1Cn1cnc2c(N(C)C)ncnc21,4.7
4,CN(C)c1ncnc2c1nc(N(C)C)n2Cc1cccc(NC=O)c1,6.96
5,COC(=O)c1cc2c(cn1)[nH]c1ccccc12 [BETA-CCM],8.3
6,CC(=O)Nc1cccc(Cn2c(Br)nc3c(N(C)C)ncnc32)c1,6.08
7,CN(C)c1ncnc2c1ncn2Cc1cccc(CO)c1,5.3
8,c1ccc2c(c1)[nH]c1cnccc12 [NORHARMANE],5.79
9,CN(C)c1ncnc2c1ncn2Cc1cccc(O)c1,5.92
10,CCCC(=O)c1cc2c(cn1)[nH]c1ccccc12,7.64
11,CCCCc1cc2c(cn1)[nH]c1ccccc12,6.64
12,CN(C)c1ncnc2c1nc(Br)n2Cc1cccc(NC(N)=O)c1,7.6
13,Clc1cc2c(cn1)[nH]c1ccccc12,7.35
14,CN(C)c1ncnc2c1ncn2Cc1cccc(NC=O)c1,7.47
15,COc1nc2c(N(C)C)ncnc2n1Cc1cccc(N)c1,6
16,CCOC(=O)c1cc2c(cn1)[nH]c1ccccc12,8.3
17,CN(C)c1ncnc2c1ncn2Cc1cccc(OC(=O)C(C)(C)C)c1,5.8
18,COC(=O)Nc1cccc(Cn2c(Br)nc3c(N(C)C)ncnc32)c1,5.28
19,CCCCOc1cc2c(cn1)[nH]c1ccccc12,7.01
20,CN(C)c1ncnc2c1nc(Br)n2Cc1cccc(NS(C)(=O)=O)c1,5.82

row,Structure (SMILES),pIC50
1,CC(C)(C)COc1nccc2c1[nH]c1ccccc12,7.02
2,CNc1nc2c(N(C)C)ncnc2n1Cc1cccc(N)c1,5.14
3,CC(C)Oc1cc2c(cn1)[nH]c1ccccc12,6.29
4,CNc1nc2c(N(C)C)ncnc2n1Cc1cccc(NC=O)c1,6.44
5,CC(=O)Oc1cccc(Cn2cnc3c(N(C)C)ncnc32)c1,6.36
6,CN(C)c1ncnc2c1nc(O)n2Cc1cccc(NC=O)c1,6.89
7,CN(C)c1ncnc2c1nc(Br)n2Cc1cccc(N)c1,6.96
8,CN(C)c1ncnc2c1nc(Cl)n2Cc1cccc(N)c1,6.72
9,CN(C)c1ncnc2c1nc(Br)n2Cc1cccc(NC=O)c1,7.96
10,CN(C)c1ncnc2c1ncn2Cc1cccc(F)c1,5.14
11,CC(C)COc1nccc2c1[nH]c1ccccc12,7.03
12,c1ccc(COc2nccc3c2[nH]c2ccccc23)cc1,6
13,CCOc1cc2c(cn1)[nH]c1ccccc12,7.62
14,CC(C)CCOc1nccc2c1[nH]c1ccccc12,6.27
15,CCCOc1cc2c(cn1)[nH]c1ccccc12,7.96
16,COc1cc2c(cn1)[nH]c1ccccc12,6.91
17,CN(C)c1ncnc2c1ncn2Cc1ccccc1Cl,4.89
18,CN(C)c1ncnc2c1nc(N(C)C)n2Cc1cccc(N)c1,6.22
19,CN(C)c1ncnc2c1ncn2Cc1cccc(N)c1,6.05

# The remaining lines, values ahead:
row,pIC50,Structure (SMILES)
1,6.33,CCC(C)Oc1nccc2c1[nH]c1ccccc12 (centres undefined)
2,5.52,CN(C)c1ncnc2c1nc(Br)n2Cc1ccccc1
3,6.9,O=[N+]([O-])c1cc2c3ccccc3nc-2c[nH]1
4,4.89,CN(C)c1ncnc2c1ncn2Cc1ccccc1
5,5.1,CN(C)c1ncnc2c1nc(Br)n2Cc1cccc(NC(=O)c2ccccc2)c1
6,5.27,CN(C)c1ncnc2c1ncn2Cc1ccccc1F
7,5.27,COc1nc2c(N(C)C)ncnc2n1Cc1ccccc1
8,6.12,CC(C)(C)COC(=O)c1cc2c3ccccc3nc-2c[nH]1
9,4.77,CNc1nc2c(N(C)C)ncnc2n1Cc1ccccc1
10,5.07,Cc1nc2c(N(C)C)ncnc2n1Cc1ccccc1
11,5.12,CCc1nc(C(=O)OC)cc2c1[nH]c1ccccc12
12,8,CC(C)(C)OC(=O)c1cc2c3ccccc3nc-2c[nH]1
13,5.24,CN(C)c1ncnc2c1nc(N(C)C)n2Cc1ccccc1
14,6.45,CC(C)(C)C(=O)c1nccc2c1[nH]c1ccccc12
